Measurements published in patent publication US11149300B1, “Methods of treating gastrointestinal malignancies” (Cedars-Sinai Medical Center, priority 2018, dated 2021).
Where a name gives a salt, the structure may show the parent alone. Read-outs that look alike come from different tables or passages of the source.

Key:
pancreatic cancer [1] = conditions: in vivo; cited from earlier work
[2] = in vivo; cited from earlier work
[3] = system: metastatic triple negative breast cancer; conditions: cited from earlier work
[4] = system: Breast carcinoma (human MX-1); conditions: agent combined with veliparib; cited from earlier work
[5] = system: B Cell lymphoma (human DOHH2); conditions: agent combined with veliparib; cited from earlier work
Melanoma (murine B16F10) = conditions: agent combined with veliparib; cited from earlier work
[6] = system: locally advanced and metastatic pancreatic carcinomas; conditions: cited from earlier work
pancreatic cancer [7] = conditions: cited from earlier work
[8] = system: locally advanced and metastatic pancreatic adenocarcinoma; conditions: cited from earlier work
[9] = system: unresectable pancreatic cancer; conditions: cited from earlier work
pancreatic cancer [10] = conditions: full-dose gemcitabine with 36 Gy; cited from earlier work
[11] = human, in vivo; cited from earlier work
[12] = repeated dose toxicity, sole agent; format: in vivo, rats; conditions: no adverse effects, highest dose tested
[13] = repeated dose toxicity in conjunction with cisplatin; format: in vivo, rats
[14] = cited from earlier work
[15] = highest dose tested; cited from earlier work
[16] = cited from earlier work; remark: listed apart in the source
[17] = in vitro; cited from earlier work
[18] = repeated dose (2-week) toxicology study; conditions: 30 mg base/kg/day
C-41 cells = conditions: cited from earlier work
[19] = cited from earlier work; remark: listed apart in the source
PARP = conditions: cited from earlier work
[20] = monkey; cited from earlier work
[21] = dog, 5 μM; cited from earlier work
[22] = 8-hour incubation; cited from earlier work
human 5-HT7 = human 5-HT7 (Homo sapiens, UniProt P34969); conditions: 10 μM (2.4 μg/mL); cited from earlier work
[23] = mice, cited from earlier work
[24] = cited from earlier work; remark: listed apart in the source
PAR in PBMCs and tumor = conditions: cited from earlier work; for treatment related adverse events: single dose 10 or 25 mg
[25] = anesthetized dog cardiovascular model
[26] = system: locally advanced or borderline resectable pancreatic cancer; assay: Phase I VelGemRad trial, PFS and OS, overall and by DDR biomarker
Description: RNA-seq libraries were prepared from pre-treatment tumor biopsies. The database for annotation, visualization, and integrated discovery (DAVID) v6.7 was used to interpret the differential expression genes data. Cox regression model was used to identify DNA damage related pathways associated with patient survivals.
The secondary objective was to measure the clinical activity of the treatment (progression free survival—PFS, overall survival—OS) and evaluate patient tumor or blood pre-, during and post treatment for DNA damage repair alterations, PAR levels and immune mediators. Between 2013 and 2016, 34 patients enrolled at a single institution. Four were removed due to non-compliance. The median age was 67 and 24 were LAPC and 6 were borderline resectable prostate cancer (BR).
Treatment naïve patients with LA or borderline resectable pancreatic cancer (BR) were treated with weekly G (1000 mg/m^2), daily RT (36 Gy/15 fractions) and V 20 mg BID daily for 3 weeks escalated per Bayesian method followed by standard chemotherapy. DAVID v6.7 was used to interpret transcriptomic differential expression of genes. Cox regression model was used to identify DDR pathways associated with survival. […] The log-rank test was used to evaluate differences in PFS and OS.

[27] = all patients, with gemcitabine and IMRT
[28] = biomarker positive (+), DNA repair defects by gene expression

Chain of human 5-HT7 (P34969 whole entry): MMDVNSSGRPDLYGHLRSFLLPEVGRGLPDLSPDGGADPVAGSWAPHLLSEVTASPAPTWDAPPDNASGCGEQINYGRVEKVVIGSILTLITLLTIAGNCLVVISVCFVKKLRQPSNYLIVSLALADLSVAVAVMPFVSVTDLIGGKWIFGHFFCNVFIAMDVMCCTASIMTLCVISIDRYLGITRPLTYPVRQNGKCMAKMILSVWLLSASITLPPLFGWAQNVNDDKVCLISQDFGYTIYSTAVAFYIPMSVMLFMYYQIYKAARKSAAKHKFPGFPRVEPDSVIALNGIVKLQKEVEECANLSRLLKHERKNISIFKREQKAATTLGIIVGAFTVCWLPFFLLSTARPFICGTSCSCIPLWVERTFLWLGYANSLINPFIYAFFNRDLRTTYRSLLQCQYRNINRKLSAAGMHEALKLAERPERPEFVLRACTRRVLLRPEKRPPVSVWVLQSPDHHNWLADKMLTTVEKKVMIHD

In the case of `O=c1[nH]cc(F)c(=O)[nH]1` [5 FU], the median survival (pancreatic cancer [1]) is given as 4.41 months and the “patients with clinical benefit” value (pancreatic cancer [1]) is given as 5%.
In the case of `CC1(c2nc3c(C(N)=O)cccc3[nH]2)CCC(=O)N1` (stereo not shown) [A-925088], the route of clearance [2] is listed as “cleared primarily in the urine”.
In the case of `NC(=O)c1ccc(I)c([N+](=O)[O-])c1` [BSI-201], the “frequency and nature of adverse events” value ([3]; in vivo) is given as “did not differ between arms” and the “clinical outcome versus chemotherapy alone” value ([3]; with gemcitabine 1000 mg/m^2 and carboplatin AUC=2) is given as “improved CBR, median PFS, and median OS”.
For `N.N.O=C([O-])C1(C(=O)[O-])CCC1.[Pt+2]` [Carboplatin], the “veliparib mediated potentiation of cytotoxic agent” value (from here on “veliparib mediated potentiation”) [4] is listed as “Yes”.
In the case of `N.N.[Cl][Pt][Cl]` [Cisplatin], the “veliparib mediated potentiation” value [4] is listed as “Yes” and the “veliparib mediated potentiation” value [5] is listed as “No”.
For `O=P1(N(CCCl)CCCl)NCCCO1` (stereo not shown) [Cyclophosphamide], the “veliparib mediated potentiation” value [4] is listed as “Yes”.
For `CCc1c2c(nc3ccc(OC(=O)N4CCC(N5CCCCC5)CC4)cc13)-c1cc3c(c(=O)n1C2)COC(=O)[C@]3(O)CC` [Irinotecan], the “veliparib mediated potentiation” value (Melanoma (murine B16F10)) is listed as “Yes”.
In the case of `Nc1ccn([C@@H]2O[C@H](CO)[C@@H](O)C2(F)F)c(=O)n1` [gemcitabine, 2′,2′-Difluoro-2′-deoxycytidine], the median survival (pancreatic cancer [1]) is listed as 5.56 months, the “patients with clinical benefit” value (pancreatic cancer [1]) is listed as roughly 25% and the response rates ([6]; chemo naïve patients) is listed as “up to 42%”. The response rates ([6]; heavily pretreated patients) was 11-22%, the objective responses (pancreatic cancer [7]; combined arm, gemcitabine 600 mg/m^2 with 50.4 Gy) was 8.8% and the “Grade IV toxicity” value (pancreatic cancer [7]; combined group) was 41.2%. The objective responses (pancreatic cancer [7]; gemcitabine alone arm (1000 mg/m^2)) was 2.7%, the “Grade IV toxicity” value (pancreatic cancer [7]; gemcitabine alone) was 5.7% and the “intracellular gemcitabine triphosphate concentration” value ([8]; FDR arm versus standard) was “two-fold increase”. The median survival ([8]; FDR arm, 1,500 mg/m^2 over 150 minutes) was 8.0 months, the hematologic toxicity ([8]; FDR infusion arm) was “increased but acceptable hematologic toxicity” and the median survival ([8]; standard arm, 2,200 mg/m^2 over 30 minutes) was 5.0 months. The “patients with DLT” value ([9]; FDR-G with IMRT 50-60 Gy) was 6 patients, the median overall survival ([9]; in vivo) was 23.1 months and the median progression-free survival ([9]; in vivo) was 7.2 months. The response rate ([9]; in vivo) was 52.4%, the disease control rates (pancreatic cancer [10]) was 84.6% and the response rates (pancreatic cancer [10]) was 5.1%. The tolerability (pancreatic cancer [10]) was “well-tolerated” and the “time to steady-state plasma levels after starting infusion” value [11] was no more than 15 min.
For `C[C@]1(c2nc3c(C(N)=O)cccc3[nH]2)CCCN1` [veliparib dihydrochloride], the “Cmax as multiple of estimated therapeutic peak plasma concentration” value [12] was “greater than 19 fold”, the “Cmax as multiple of estimated therapeutic peak plasma concentration” value ([13]; highest dose with cisplatin) was 22 fold and the “Cmax as multiple of estimated therapeutic value” ([13]; no clinically meaningful exacerbation) was “up to 8 fold”. The toxic findings ([14]; 30 mg base/kg/day) was “emesis, body weight losses related to anorexia, and convulsions”, the “adverse effects, sole agent” value [15] was “did not result in adverse effects” and the “exacerbation of cisplatin-associated toxicity” value ([16]; highest dose with cisplatin) was “Exacerbation of cisplatin-associated toxicity”. For the same molecule, the “exacerbation of cisplatin-associated toxicity” value ([16]; lower doses with cisplatin) was “no clinically meaningful exacerbations”, the clastogenicity [17] was “negative” and the mutagenicity [17] was “negative”. The “Cmax as multiple of estimated therapeutic peak plasma concentration” value [18] was 26 fold.
For `C[C@]1(c2nc3c(C(N)=O)cccc3[nH]2)CCCN1` [veliparib], the “γ-H2AX foci (DNA damage)” value (C-41 cells; added to 1 mM temozolomide) is given as “further potentiated”, the “DNA damage caused by irinotecan” value (C-41 cells; with irinotecan) is given as “potentiates” and the potentiation of cisplatin ([19]; long-term clonogenic assay) is given as “potentiation was observed”. The potentiation of cisplatin ([19]; short-term cytotoxicity assay) was “not in the short-term cytotoxicity assay”, the “inhibition of PARP activity in tumors” value (PARP; 12.5, 5 and 1 mg/kg/day, vehicle and temozolomide treated groups) was “significant” and the “PAR formation in tumors” value (PARP; veliparib alone, two hours after administration) was “inhibited PAR formation in B16F10 tumors in a dose-dependent manner”. For the same molecule, the oral bioavailability [20] was 56.1%, the “protein binding in plasma, % bound” value [21] was 42% and the stability in plasma [22] was “very stable”. For the same molecule, the “displacement of control-specific binding” value (human 5-HT7) was 84%, the “outcome after electrically-induced tonic convulsions” value ([23]; 100 mg/kg PO) was “increased incidence of death” and the “outcome in audiogenic seizure model” value [23] was “Death was also noted”. For the same molecule, the seizures ([14]; 60 mg/kg/day, 30 mg/kg twice daily or 30 mg/kg every day) was “seizures were also noted”, the “non-toxic dose in the most sensitive mammalian species” value ([14]; beagle dogs) was 300 mg/m^2 and the “plasma concentrations in dogs with seizures” value ([14]; dog, in vivo) was greater than 5400 ng/mL. For the same molecule, the “change in mean arterial pressure versus baseline” value ([24]; 12.96 μg/mL) was −16±5%, the “change in systemic vascular resistance versus baseline” value ([24]; 12.96 μg/mL) was −10±7% and the “QTcV prolongation above baseline” value ([24]; 12.96±0.92 μg/mL) was 15±3%. For the same molecule, the “mean plasma concentration with modest haemodynamic effects” value ([24]; dog, in vivo) was 12960 ± 920 ng/mL, the “mean plasma concentration without haemodynamic change” value ([24]; dog, in vivo) was 4450 ± 130 ng/mL and the “mean arterial pressure, heart rate, dP/dtmax, pulmonary arterial pressure, vascular resistance” value ([24]; mean plasma concentrations up to 4.45 μg/mL) was “no physiologically relevant changes”. The “delayed repolarization (QTc intervals), trend” value ([24]; plasma concentrations 21-fold predicted Cmax) was 7%, the “patients exceeding target plasma Cmax of 210 nM” value (PAR in PBMCs and tumor; 10 mg dose level) was 2 of 3 patients and the “patients exceeding target plasma Cmax of 210 nM for at least 4 hours” value (PAR in PBMCs and tumor; 25 mg dose level) was “all three patients”. For the same molecule, the “reduction of PAR levels from baseline” value (PAR in PBMCs and tumor; single 25 mg dose, PBMCs and tumor samples) was 80-99%, the “treatment related adverse events” value (PAR in PBMCs and tumor) was “No treatment related adverse events” and the “treatment related adverse events” value (PAR in PBMCs and tumor; listed as ABT-888) was “no treatment related adverse events”. For the same molecule, the “multiple of predicted clinical Cmax” value ([25]; at 4.45 μg/mL) was 21 fold, the “multiple of predicted clinical Cmax” value ([25]; at 12.96 μg/mL) was 62 fold and the “multiple of predicted clinical Cmax at which QT prolongation was seen” value ([25]; dog, in vivo) was 21 fold. The “median OS” value ([26]; FA biomarker (+)) was 18 months, the “median OS” value ([26]; FA biomarker (−)) was 12 months and the “median OS” value ([26]; MMR biomarker (+)) was 18 months. For the same molecule, the “median OS” value ([26]; MMR biomarker (−)) was 12 months, the “median OS” value ([26]; NER biomarker (+)) was 22 months and the “median OS” value ([26]; NER biomarker (−)) was 12 months. The “median overall survival (OS)” value [26, 27] was 14.6 months, the “median progression free survival (PFS)” value [26, 27] was 9.8 months and the “median OS” value ([26]; biomarker negative (−)) was 12 mos. The “median PFS” value ([26]; biomarker negative (−)) was 8 mos, the “median OS” value [26, 28] was 22 mos and the “median PFS” value [26, 28] was 17 mos.
